ChEMBL document CHEMBL4270556, “Current progress on antioxidants incorporating the pyrazole core” (Eur J Med Chem, 2018)
≈ marks a conversion by molar mass, not a printed value. Blank lines part the entries; values can stand above or below the compound they belong to.

Columns and labels:
[1] = Antioxidant activity assessed as hydroxyl radical scavenging activity; assay type: functional
[2] = Antioxidant activity assessed as inhibition of lipid peroxidation; assay type: functional
[3] = Antioxidant activity assessed as DPPH radical scavenging activity at 20 ug/ml relative to control; assay type: functional
[4] = Antioxidant activity assessed as inhibition of H2O2-induced lipid peroxidation; assay type: functional
[5] = Antioxidant activity assessed as DPPH radical scavenging activity at 80 ug/ml relative to control; assay type: functional
[6] = Antioxidant activity assessed as DPPH radical scavenging activity at 60 ug/ml relative to control; assay type: functional
[7] = Antioxidant activity assessed as DPPH radical scavenging activity at 40 ug/ml relative to control; assay type: functional
THP-1 = experiment: Antioxidant activity in human THP1 cells assessed as inhibition of macrophage-mediated LDL oxidation after 24 hrs in presence of CuSO4 by TBARS assay; assay type: functional, cell-based; conditions: THP-1, 24 h
[8] = Antioxidant activity assessed as DPPH radical scavenging activity at 4 mM relative to control; assay type: functional
[9] = Antioxidant activity assessed as radical scavenging activity; assay type: functional
SH-SY5Y = experiment: Neuroprotection against rotenone/oligomycin A-induced cell death in human SH-SY5Y cells at 1 uM preincubated for 24 hrs followed by rotenone/oligomycin A addition measured after 24 hrs by MTT assay relative to control; assay type: functional

IC50 [1]: 2930 µM | IC50 [2]: 1440 µM
Structure (SMILES): Oc1cc(O)c2c(c1)O[C@H](c1ccc(O)c(O)c1)[C@@H](O)C2 [CIANIDANOL]

Structure (SMILES): CCOC(=O)C1=C(N)Oc2c(c(C)nn2C(=O)c2ccncc2)C1c1c(-c2ccc(C)cc2)[nH]c2ccc(Cl)cc12 (stereo not given)
Activity [3]: 66.6 to 76.1%

IC50 [4]: < 15 µM
Structure (SMILES): CC1=NN(C(=O)c2ccccc2O)C(O)(C(F)(F)F)C1 (stereo not given)

Structure (SMILES): CCOC(=O)C1=C(N)Oc2c(c(C)nn2C(=O)c2ccncc2)C1c1c(-c2ccc(C)cc2)[nH]c2ccccc12 (stereo not given)
Activity [5]: 76.1% | Activity [3]: 80.1% | Activity [6]: 76.1% | Activity [7]: 79.6%

IC50 (THP-1): 0.1 µM
Structure (SMILES): CC(C)(C)c1cc(C2=NNC(c3cc(C(C)(C)C)c(O)c(C(C)(C)C)c3)C2)cc(C(C)(C)C)c1O (stereo not given)

Structure (SMILES): Oc1c(Cl)cc(Cl)cc1C1Nc2ccccc2-c2cc(-c3ccccc3)nn21 (stereo not given)
Activity [8]: 99%

IC50 [9]: 800 µg/mL (≈ 2590 µM)
Structure (SMILES): Nc1[nH]nc(NCc2ccccc2)c1-c1ccc([N+](=O)[O-])cc1

IC50 [1]: 1970 µM | IC50 [2]: 1990 µM
Structure (SMILES): Cc1ccc(-c2cc(C(F)(F)F)nn2-c2ccc(S(N)(=O)=O)cc2)cc1 [CELECOXIB]

Structure (SMILES): CCOC(=O)C1=C(N)Oc2c(c(C)nn2C(=O)c2ccncc2)C1c1c(-c2ccccc2)[nH]c2ccccc12 (stereo not given)
Activity [5]: 70.2% | Activity [6]: 74.5% | Activity [7]: 66.6 to 76.1%

Structure (SMILES): CCOC(=O)C1=C(N)Oc2c(c(C)nn2C(=O)c2ccncc2)C1c1c(-c2ccccc2)[nH]c2ccc(Cl)cc12 (stereo not given)
Activity [5]: 76.7%

IC50 (THP-1): 0.6 µM
Structure (SMILES): CC(C)(Sc1cc(C(C)(C)C)c(O)c(C(C)(C)C)c1)Sc1cc(C(C)(C)C)c(O)c(C(C)(C)C)c1 [PROBUCOL]

Structure (SMILES): Cc1[nH]nc2c1C(c1cccnc1)C(C#N)=C(N)O2 (stereo not given)
Activity (SH-SY5Y): 57.9%

Structure (SMILES): O=[N+]([O-])c1cccc(C2Nc3ccccc3-c3cc(-c4ccccc4)nn32)c1 (stereo not given)
Activity [8]: 96%
